Laboratory results as given in patent US9066948B2, “Oxadiazolo[3,2-a]pyrimidines and thiadiazolo[3,2-a]pyrimidines” (THE UNITED STATES OF AMERICA AS REPRESENTED BY THE …, priority 2010, dated 2015).
Where “and” joins values, the source holds several entries; their conditions need not be identical. Equal entries are not always repeated. Where two headings read alike, the source gives them in different places.

How the values were obtained:
[1] = tested on: platelets; experiment: Platelet aggregation assay: ADP-induced, platelet-rich plasma; type: cell-based, human; conditions: for IC50: Homo sapiens, Platelet, n=4
Method: […] After 30 seconds in the aggregometer (Kowa AF-10E; Tokyo, Japan) at 37° C. with stirring, ADP (5-20 μM) is added to induce aggregation and the light transmittance is measured for 8 minutes. The initial slopes of aggregation in the presence of different concentrations of the Compound being tested are used to generate an IC50.

[2] = tested on: rat platelets; experiment: ADP-induced platelet aggregation, rat PRP (Example 45); type: cell-based; conditions: 1 μM
Method: Blood may be drawn via cardiac puncture from anesthetized Sprague Dawley rats (Taconic, Hudson, N.Y.), WT C57B1/6 mice (Jackson Laboratories, Bar Harbor, Me.), and mice expressing hαIIb/mβ3 and diluted 1:1 with a mixture of 4 parts 0.165 […], pH 7.4 containing 2 mM CaCl2 and 1 mM MgCl2. Blood from consenting human volunteers is obtained from a peripheral vein using a 19 gauge needle and anticoagulated with 1:10 vol 3.8% sodium citrate. Platelet-rich plasma (PRP) may be isolated by centrifugation at 22° C. at 350 g for 10 minutes (rats); 250 g for 2.5 minutes (mice); or 650 g for 4 minutes (human). Mouse PRP samples may be adjusted to 400,000 platelets/μl with the buffer used for dilution and human PRP may be adjusted to 300,000 platelets/μl with platelet-poor plasma. […] Platelet aggregation may be induced by adding to PRP adenosine diphosphate (ADP) at 30 μM (rats and WT mice), 20 or 30 μM (hαIIb/mβ3 mice), or 5 μM (humans), and light transmission may be measured over time in an aggregometer (Kowa AG-10E, Tokyo, Japan) with stirring. Percent inhibition may be calculated by comparing the initial slope of untreated samples to the samples treated with the Compounds of the Invention.

[3] = tested on: hαIIb/mβ3 platelets; experiment: ADP-induced aggregation of platelets from mice expressing hαIIb/mβ3 (Example 45); type: cell-based, mouse
Method: Blood may be drawn via cardiac puncture from anesthetized Sprague Dawley rats (Taconic, Hudson, N.Y.), WT C57B1/6 mice (Jackson Laboratories, Bar Harbor, Me.), and mice expressing hαIIb/mβ3 and diluted 1:1 with a mixture of 4 parts 0.165 […], pH 7.4 containing 2 mM CaCl2 and 1 mM MgCl2. Blood from consenting human volunteers is obtained from a peripheral vein using a 19 gauge needle and anticoagulated with 1:10 vol 3.8% sodium citrate. Platelet-rich plasma (PRP) may be isolated by centrifugation at 22° C. at 350 g for 10 minutes (rats); 250 g for 2.5 minutes (mice); or 650 g for 4 minutes (human). Mouse PRP samples may be adjusted to 400,000 platelets/μl with the buffer used for dilution and human PRP may be adjusted to 300,000 platelets/μl with platelet-poor plasma. Samples of PRP may be either untreated or incubated for 5 minutes at 37° C. with the Compounds of the Invention (100 μM). Platelet aggregation may be induced by adding to PRP adenosine diphosphate (ADP) at 30 μM (rats and WT mice), 20 or 30 μM (hαIIb/mβ3 mice), or 5 μM (humans), and light transmission may be measured over time in an aggregometer (Kowa AG-10E, Tokyo, Japan) with stirring. Percent inhibition may be calculated by comparing the initial slope of untreated samples to the samples treated with the Compounds of the Invention.

[4] = tested on: washed platelets; experiment: Effect of Mg2+ concentration on platelet adhesion to fibrinogen; type: cell-based, human; conditions: for IC50: Homo sapiens, Platelet, mean±SD, three experiments
Method: Washed platelets in buffers containing 1 mM Ca^2+ plus 1 mM, 20 mM, or 50 mM Mg^2+ are added to wells pre-coated with fibrinogen (50 μg/ml) for 60 min at 22° C. After washing, adherent platelets are detected by acid phosphatase activity. Results are expressed as mean±SD (n=3 for the compound of Example 27 of the current invention and 2-ethyl-7-(piperazin-1-yl)-5H-[1,3,4]thiadiazolo-[3,2-a]pyrimidin-5-one (a compound disclosed and claimed in U.S. Ser. No. 12/514,286); n=2 for tirofiban).

[5] = tested on: platelets; experiment: Platelet adhesion assay: calcein-labeled platelets on fibrinogen-coated wells; type: cell-based; conditions: Homo sapiens, mean±SD
Method: Thirty microliters of human fibrinogen (50 μg/mL) in Tris/saline (100 mM NaCl, 50 mM Tris/HCl, pH 7.4; American Diagnostica, Stamford, Conn.) are added to black, clear-bottom, untreated polystyrene, nonsterile 384-well microtiter plate wells (Corning no. 3711; Acton, Mass.). […] An additional wash is performed using HBMT with 1 mM MgCl2 and 2 mM CaCl2. Calcein-labeled platelets (final concentration 1×10^11/L) are treated with selected Compounds of the Invention (final concentration of 100 μM, 30 μM, 10 μM or 1 μM) at 22° C. for 20 minutes. Thirty microliters of platelets are then added to the wells. After 1 hour of adhesion, wells are washed 3 times with HBMT-1 mM MgCl2/2 mM CaCl2 and the plates are read by a fluorescent microtiter plate reader (Envision; Perkin Elmer) to detect calcein fluorescence (490 nm excitation and 515 nm emission). Negative controls consist of wells containing platelets without compounds of the invention.

[6] = biological target: T1, αIIbβ3 (Homo sapiens, UniProt P05106+P08514); experiment: Induction of ligand-induced binding site (LIBS) epitopes, flow cytometry of washed platelets; type: cell-based; conditions: eptifibatide 10 μM = 100%, Example 27 at 100 μM
T1 construct: Washed platelets are prepared in HBMT containing 2 mM CaCl2/1 mM MgCl2; endogenous in cells; host or cells: washed platelets
Method: Washed platelets are prepared in HBMT containing 2 mM CaCl2/1 mM MgCl2. […] Fluorescently labeled monoclonal antibodies (PMI-1, LIBS-1, AP5, or 10E5; Alexa-488 conjugated; Invitrogen) are then added (20 μL, final concentration: 5 μg/mL) and incubated for 30 minutes at 22° C. in the dark, after which samples are diluted 1:10 in HBMT with CaCl2/MgCl2 for analysis by flow cytometry (FACSCalibur; Becton Dickinson, Franklin Lakes, N.J.). Antibody binding is reported as the geometric mean fluorescence intensity; nonspecific binding is determined by adding a 50-fold excess of unlabeled antibody before adding the labeled antibody. The net normalized fluorescence intensity in the presence of eptifibatide (10 μM, 30 min incubation at 22° C.) is assigned the value of 100%

T1 sequence (P08514 32-887 limits assumed): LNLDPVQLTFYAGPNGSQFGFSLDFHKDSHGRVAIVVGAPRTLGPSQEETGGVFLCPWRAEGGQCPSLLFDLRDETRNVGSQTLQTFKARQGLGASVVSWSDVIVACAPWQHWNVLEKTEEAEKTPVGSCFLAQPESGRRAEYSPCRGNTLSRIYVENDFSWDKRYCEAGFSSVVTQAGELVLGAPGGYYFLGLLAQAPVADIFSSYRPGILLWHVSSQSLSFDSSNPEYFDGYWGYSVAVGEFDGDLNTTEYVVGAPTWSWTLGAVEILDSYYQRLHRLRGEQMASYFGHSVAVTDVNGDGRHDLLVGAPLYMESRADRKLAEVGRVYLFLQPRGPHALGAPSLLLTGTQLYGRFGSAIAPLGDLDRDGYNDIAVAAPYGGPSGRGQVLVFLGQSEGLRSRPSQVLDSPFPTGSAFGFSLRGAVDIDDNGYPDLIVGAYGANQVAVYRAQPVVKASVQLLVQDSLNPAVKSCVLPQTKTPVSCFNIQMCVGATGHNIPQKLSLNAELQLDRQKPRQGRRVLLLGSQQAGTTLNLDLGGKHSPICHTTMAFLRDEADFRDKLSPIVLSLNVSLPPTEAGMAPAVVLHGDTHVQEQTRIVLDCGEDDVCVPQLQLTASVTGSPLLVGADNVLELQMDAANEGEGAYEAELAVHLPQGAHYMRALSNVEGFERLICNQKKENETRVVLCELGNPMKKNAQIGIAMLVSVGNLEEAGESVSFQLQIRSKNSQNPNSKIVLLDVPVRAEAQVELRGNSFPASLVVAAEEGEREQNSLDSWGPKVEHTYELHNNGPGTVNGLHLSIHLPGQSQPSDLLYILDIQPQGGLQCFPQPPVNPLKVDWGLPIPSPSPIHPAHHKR
T1 sequence (P08514 891-1039 partner limits assumed): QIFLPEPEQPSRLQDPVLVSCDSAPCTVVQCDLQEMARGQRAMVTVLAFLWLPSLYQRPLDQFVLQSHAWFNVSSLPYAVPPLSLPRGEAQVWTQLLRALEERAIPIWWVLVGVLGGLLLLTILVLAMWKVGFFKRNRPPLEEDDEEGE
T1 sequence (P05106 27-788): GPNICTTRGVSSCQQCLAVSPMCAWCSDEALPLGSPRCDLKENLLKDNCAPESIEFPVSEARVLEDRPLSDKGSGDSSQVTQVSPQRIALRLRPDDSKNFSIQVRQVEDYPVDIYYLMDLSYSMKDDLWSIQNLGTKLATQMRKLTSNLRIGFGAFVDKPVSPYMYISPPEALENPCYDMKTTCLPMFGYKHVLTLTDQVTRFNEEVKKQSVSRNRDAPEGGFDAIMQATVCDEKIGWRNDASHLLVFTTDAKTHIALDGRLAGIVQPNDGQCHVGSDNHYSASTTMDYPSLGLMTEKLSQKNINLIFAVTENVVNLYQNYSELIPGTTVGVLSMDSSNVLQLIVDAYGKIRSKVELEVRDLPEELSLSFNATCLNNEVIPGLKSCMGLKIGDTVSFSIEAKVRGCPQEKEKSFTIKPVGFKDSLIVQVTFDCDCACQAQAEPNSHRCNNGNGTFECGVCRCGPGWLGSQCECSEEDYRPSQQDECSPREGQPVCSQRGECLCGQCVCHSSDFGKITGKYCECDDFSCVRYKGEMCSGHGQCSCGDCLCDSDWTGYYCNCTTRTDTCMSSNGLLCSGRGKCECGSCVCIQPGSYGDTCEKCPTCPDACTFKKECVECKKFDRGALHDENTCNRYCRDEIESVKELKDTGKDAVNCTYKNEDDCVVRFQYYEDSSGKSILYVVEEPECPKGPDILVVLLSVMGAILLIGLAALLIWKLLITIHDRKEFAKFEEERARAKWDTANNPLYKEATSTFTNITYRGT

NCC(=O)Nc1cccc(-c2nn3c(=O)cc(N4CCNCC4)nc3s2)c1 [Example 27, 2-amino-N-(3-(5-oxo-7-(piperazin-1-yl)-5H-[1,3,4]thiadiazolo[3,2-a]pyrimidin-2-yl)phenyl)acetamide]
potency in inhibiting platelet aggregation relative to 2-ethyl-7-(piperazin-1-yl)-5H-[1,3,4]thiadiazolo-[3,2-a]pyrimidin-5-one [1]: more than one hundred-fold more potent | IC50 ([1]; PPACK instead of citrate, read-out: IC50, ADP-induced platelet aggregation with PPACK as anticoagulant): 220 nM | IC50 ([1]; citrate anticoagulant, read-out: IC50, ADP-induced platelet aggregation of citrated PRP): 90 ± 20 nM | IC50 with PPACK relative to citrate ([1]; PPACK vs citrate): ~3 fold | inhibition of rat platelet aggregation induced by ADP [2]: does not inhibit either mouse or rat platelet aggregation | inhibition of aggregation of platelets from a mouse expressing hαIIb/mβ3 [3]: essentially completely inhibits the aggregation | decrease in affinity going from 1 to 50 mM Mg2+ ([4]; 1 to 50 mM Mg2+): ~80% | increase in IC50 going from 1 to 50 mM Mg2+ ([4]; 1 to 50 mM Mg2+): ~4.5 fold | IC50 ([4]; 1 mM Mg2+): 290 ± 100 nM | IC50 ([4]; 20 mM Mg2+): 910 ± 210 nM | IC50 ([4]; 50 mM Mg2+): 1300 ± 350 nM | inhibition at 10 µM ([5]; 10 μM): 66 ± 10% | inhibition at 30 µM ([5]; 30 μM, 5 separate experiments): 80 ± 13% | inhibition at 100 µM ([5]; 100 μM, 5 separate experiments): 83 ± 7% | AP5 binding, % of the amount in the presence of eptifibatide [6]: 18±5% and 18% | LIBS1 binding after 30 min, % of the amount in the presence of eptifibatide [6]: 21±3% | PMI-1 binding, % of the amount bound by platelets treated with eptifibatide [6]: 82±13%
